Laboratory results as given in patent EP4293034A1, “A NOVEL ACYLATED DERIVATE OF PHLORETIN AND ITS USE AS ANTIOXIDANT” (Consejo Superior de Investigaciones Científicas (CSIC), priority 2022, dated 2023).
≈ marks a conversion by molar mass, not a printed value. Like-named read-outs stand apart in the source and are kept apart here. Marks after values point to notes of the source that are not given here.

Key:
[1] = Aqueous solubility; type: physicochemical; details: water, 25 °C, 72 h
Protocol: The compound was incubated at 25 °C in water (saturated conditions) during 3 days under orbital stirring (1000 rpm). Then, the sample was centrifuged. A volume of 200 µL of the supernatant solution was analysed by triplicate, in a 96-well plate, using a phloretin calibration curve in methanol (0-200 µg/mL). The absorbance was measured by UV spectrophotometry (Tecan Infinite M200) at 297 nm.

[2] = Antioxidant activity, ABTS assay; type: biochemical; details: n = 3
Protocol: (§1) The capacity of the synthesized ester to reduce 2,2-diphenyl-1-picrylhydrazyl (DPPH) and the radical cation 2,2-azino-bis(3-ethylbenzothiazoline-6-sulfonic acid) diammonium salt (ABTS^·+) was assayed. (R)-Trolox was employed as antioxidant reference. Standard solutions with a concentration between 0 and 1000 µM for DPPH assay, and between 0 and 500 µM for ABTS assay, were prepared.

[3] = Antioxidant activity, DPPH assay; type: biochemical; details: n = 3
Protocol: as §1

[4] = In vitro percutaneous absorption on Franz static diffusion cells; type: in vitro ADME; details: pig skin model, 24 h exposure, Figure 5
Protocol: The study was carried out in vitro with pig biopsies placed on Franz static diffusion cells (3 mL, 1.86 cm^2 of exposed area, diameter: […], Lara-Spiral, Courtenon, France) in order to determine the distribution of active compound (API) at the different skin layers, after an exposure time of 24 hours. The pig skin, provided by the Department of Cardiology of the Hospital Clinic (Barcelona, Spain), is considered morphologically and functionally equivalent to human skin for percutaneous absorption studies. Ultra-pure water was employed as receptor fluid, and cells were placed in a thermostated water bath (32 °C) containing a magnetic stirring device to obtain the skin surface temperature at 32 ± 1 °C. The integrity of the skin samples was evaluated by measuring the transepidermal water loss (TEWL) with Tewameter TM300 (Courage & Khazaka, Cologne, Germany) considering correct TEWL values under 15 g m^-2 h^-1. […] The different samples to be analyzed (W, SC, E, D and FR) were extracted and/or diluted in methanol (Merck, Darmstadt, Germany). The phloretin, its corresponding monoglucoside and acylated monoglucoside concentrations were analyzed by HPLC, as previously described. […] The results are shown as mean values (expressed as µg/cm2) ± standard deviations. […]

[5] = (*) data from Gonzalez-Alfonso et al, 2021, cited from earlier work; for EC50: EC50 ± SD, read-out: ABTS assay EC50; for ABTS assay TEAC: TEAC ± SD
[6] = (*) data from Gonzalez-Alfonso et al, 2021, cited from earlier work; for EC50: EC50 ± SD, read-out: DPPH assay EC50; for DPPH assay TEAC: TEAC ± SD
[7] = water, 25 °C; (*) data from Gonzalez-Alfonso et al, 2021; cited from earlier work
[8] = previously reported, Gonzalez-Alfonso et al, 2021; cited from earlier work
[9] = TEAC ± SD, calculated from EC50 of the acyl derivative and EC50 of (R)-Trolox

Structure (SMILES)	Solubility [1]	EC50 ([2]; EC50 ± SD)	ABTS assay TEAC [2, 9]	EC50 ([3]; EC50 ± SD)	DPPH assay TEAC [3, 9]	percutaneous absorption, increase versus phloretin and its α-glucoside ([4]; listed as acyl-glucoside of phloretin)	percutaneous absorption, increase versus phloretin and its α-glucoside ([4]; listed as acylglucoside of phloretin)	EC50 [5]	ABTS assay TEAC [5]	EC50 [6]	DPPH assay TEAC [6]	Solubility [7]	skin absorption (in words) [8]
CCCCCCCCCCCC(=O)OC[C@H]1O[C@H](Oc2cc(O)c(C(=O)CCc3ccc(O)cc3)c(O)c2)[C@H](O)[C@@H](O)[C@@H]1O [phloretin 4'-O-(6-O-lauroyl)-α-D-glucopyranoside]	6.0 ± 0.2 µg/mL (≈ 9.7 µM)	14.7 ± 0.7 µM	0.47 ± 0.04	439 ± 13 µM	11.4 ± 0.8	approx. 3 fold	3 fold	–	–	–	–	–	–
O=C(CCc1ccc(O)cc1)c1c(O)cc(O[C@H]2O[C@H](CO)[C@@H](O)[C@H](O)[C@H]2O)cc1O [Phloretin 4'-O-α-D-(glucopyranoside), Phloretin 4'-O-α-D-Glucopyranoside]	–	–	–	–	–	–	–	16.9 ± 0.5 µM	0.64 ± 0.06	285 ± 20 µM	8.1 ± 0.6	–	–
O=C(CCc1ccc(O)cc1)c1c(O)cc(O)cc1O [Phloretin, 2',4',6'-trihydroxy-3-(4-hydroxyphenyl)-propiophenone]	–	–	–	–	–	–	–	11.7 ± 0.6 µM	0.45 ± 0.04	217 ± 14 µM	6.2 ± 0.4	23.2 ± 0.3* mg/L	the same absorption pattern, without significant differences
